These results are taken from article PMC12396409, “Screening and hit evaluation of a microbial metabolite library against the pathogenic Plasmodium falciparum and Toxoplasma gondii parasites” (International Journal for Parasitology: Drugs and Drug …, 2025).

Experiment [1] relates to P. falciparum 3D7 parasites. Put plainly: P. falciparum growth inhibition assay, 1-cycle (72 h treatment), SYBR DNA staining (library screen at 2 μg/mL and dose-response). The class given is cell-based, Plasmodium falciparum. Conditions: 72 h; for activity at 2 µg/mL: Plasmodium falciparum.
The test system of experiment [2] is P. falciparum 3D7 parasites. Put plainly: P. falciparum growth inhibition assay, 2-cycle (120 h treatment), delayed-death screen and dose-response. The class given is cell-based, Plasmodium falciparum. Conditions: 120 h; for activity at 2 µg/mL: Plasmodium falciparum.
Experiment [3] deals with T. gondii RH strain (RH-Tub-eYFP) tachyzoites. Put plainly: microbe, parasite or virus in culture. The class given is cell-based, Toxoplasma gondii. Conditions: 72 h; for percent parasite growth at 2 µg/mL: Toxoplasma gondii.
Setting [4] is: library screen at 2 μg/mL, % growth, replicate 1.
The mark [5] stands for this setting: library screen at 2 μg/mL, % growth, replicate 2.
Setting [6] is: T. gondii, screen at 2 μg/mL, replicate 1, read-out: Tg_72h_%Growth_Rep1.
[7] abbreviates: T. gondii, screen at 2 μg/mL, replicate 2, read-out: Tg_72h_%Growth_Rep2.
Where [8] appears, read: P. falciparum, screen at 2 μg/mL, replicate 1.
[9] abbreviates: P. falciparum, screen at 2 μg/mL, replicate 2.
Setting [10] is: T. gondii, screen at 2 μg/mL, replicate 1.
[11] abbreviates: T. gondii, screen at 2 μg/mL, replicate 2.
Where [12] appears, read: library screen at 2 μg/mL, % growth, replicate 1, read-out: Tg_72h_%Growth_Rep1.
Where [13] appears, read: library screen at 2 μg/mL, % growth, replicate 2, read-out: Tg_72h_%Growth_Rep2.
The mark [14] stands for this setting: P. falciparum, parasite screen 2 μg/mL, % growth, replicate 1.
The mark [15] stands for this setting: P. falciparum, parasite screen 2 μg/mL, % growth, replicate 2.
Setting [16] is: T. gondii, parasite screen 2 μg/mL, % growth, replicate 1, read-out: Tg_72h_%Growth_Rep1.
Where [17] appears, read: T. gondii, parasite screen 2 μg/mL, % growth, replicate 2, read-out: Tg_72h_%Growth_Rep2.

Like-named read-outs stand apart in the source and are kept apart here.

In experiment [1] (setting [4]), `CC(=O)O[C@H]1CCC2(C)C3=C(CCC2C1(C)C)[C@@]1(C)CC[C@@H](C(C)CCC=C(C)C)[C@]1(C)CC3` (stereo partly drawn) [Euphol acetate] gave a Pf_72h_%Growth_Rep1 of 66.07%. For the same compound, the Pf_72h_%Growth_Rep2 in experiment [1] (setting [5]) is 91.20%. In experiment [2] (setting [4]), this compound registered a Pf_120h_%Growth_Rep1 of 60.77%. In addition, the Pf_120h_%Growth_Rep2 in experiment [2] (setting [5]) worked out at 92.36%. This compound also came in with a Tg_72h_%Growth_Rep1 in experiment [3] (setting [4]) of 114.80%. Also, in experiment [3] (setting [5]), the Tg_72h_%Growth_Rep2 came out at 105.35%.

As to `O=c1c(-c2ccc(O)cc2)coc2cc(O)ccc12` [Daidzein], the activity at 2 µg/mL in experiment [1] (3D7, P. falciparum, screen at 2 μg/mL, replicate 1, read-out: Pf_72h_%Growth_Rep1) stood at 83.8%; in experiment [1] (3D7, P. falciparum, screen at 2 μg/mL, replicate 2, read-out: Pf_72h_%Growth_Rep2), 88.8%; in experiment [2] (3D7, P. falciparum, screen at 2 μg/mL, replicate 1, read-out: Pf_120h_%Growth_Rep1), 103%; in experiment [2] (3D7, P. falciparum, screen at 2 μg/mL, replicate 2, read-out: Pf_120h_%Growth_Rep2) it was 95.5%. The results for the percent parasite growth at 2 µg/mL in experiment [3] (setting [6]) and in experiment [3] (setting [7]) were 125% and 97%, respectively.

Take `CN1C(=O)c2ccccc2NC(=O)[C@@H]1Cc1ccccc1` [Cyclopeptine]: in experiment [1] (setting [8]), the Pf_72h_%Growth_Rep1 is recorded as 53.40%. This compound had a Pf_72h_%Growth_Rep2 in experiment [1] (setting [9]) of 63.93%. In experiment [2] (setting [8]), this compound returned a Pf_120h_%Growth_Rep1 of 15.88%. Besides, in experiment [2] (setting [9]), the Pf_120h_%Growth_Rep2 worked out at 61.17%. Further, the Tg_72h_%Growth_Rep1 in experiment [3] (setting [10]) is on record as 139.33%. The compound also displayed a Tg_72h_%Growth_Rep2 in experiment [3] (setting [11]) of 93.22%.

Regarding `C/C=C/[C@H]1O[C@@](O)([C@@H](C)[C@H](O)[C@H](C)[C@H]2OC(=O)/C(OC)=C/C(C)=C/[C@@H](C)[C@@H](O)[C@@H](CC)[C@@H](O)[C@H](C)C/C(C)=C/C=C/[C@@H]2OC)C[C@@H](O[C@H]2C[C@@H](O)[C@H](OC(N)=O)[C@@H](C)O2)[C@@H]1C` [Concanamycin A], the activity at 2 µg/mL in experiment [1] (3D7, 72 h, P. falciparum, screen at 2 μg/mL, replicate 1, read-out: Pf_72h_%Growth_Rep1) amounted to 2.64%; in experiment [1] (3D7, 72 h, P. falciparum, screen at 2 μg/mL, replicate 2, read-out: Pf_72h_%Growth_Rep2) it was 2.16%; in experiment [2] (3D7, 120 h, P. falciparum, screen at 2 μg/mL, replicate 1, read-out: Pf_120h_%Growth_Rep1) it was 0.77%; in experiment [2] (3D7, 120 h, P. falciparum, screen at 2 μg/mL, replicate 2, read-out: Pf_120h_%Growth_Rep2), 5.18%. Moreover, the percent parasite growth at 2 µg/mL in experiment [3] (setting [6]) was -1.66%; in experiment [3] (setting [7]), 0.56%.

`C/C(=C\c1csc(C)n1)[C@@H]1C[C@@H]2O[C@@H]2CCC[C@H](C)[C@H](O)[C@@H](C)C(=O)C(C)(C)[C@@H](O)CC(=O)O1` [Epothilone A]: the activity at 2 µg/mL in experiment [1] (3D7, 72 h, library screen at 2 μg/mL, % growth, replicate 1, read-out: Pf_72h_%Growth_Rep1) was 5.34%; in experiment [1] (3D7, 72 h, library screen at 2 μg/mL, % growth, replicate 2, read-out: Pf_72h_%Growth_Rep2) it was 6.86%; in experiment [2] (3D7, 120 h, library screen at 2 μg/mL, % growth, replicate 1, read-out: Pf_120h_%Growth_Rep1) it was -6.26%; in experiment [2] (3D7, 120 h, library screen at 2 μg/mL, % growth, replicate 2, read-out: Pf_120h_%Growth_Rep2), 10.7%. In addition, the results for the percent parasite growth at 2 µg/mL in experiment [3] (setting [12]) and in experiment [3] (setting [13]) were 2.49% and 2.65%, respectively.

Compound `C=CC(C)(C)c1[nH]cnc1/C=C1/NC(=O)[C@@H]2C[C@@]3(C(C)(C)C=C)c4ccccc4N[C@H]3N2C1=O` [Roquefortine E] had a Pf_72h_%Growth_Rep1 in experiment [1] (setting [14]) of 11.66%. Moreover, the Pf_72h_%Growth_Rep2 in experiment [1] (setting [15]) was determined as 6.85%. The Pf_120h_%Growth_Rep1 in experiment [2] (setting [14]) is 14.59%. The Pf_120h_%Growth_Rep2 in experiment [2] (setting [15]) was 17.38%. This compound also came in with a Tg_72h_%Growth_Rep1 in experiment [3] (T. gondii, parasite screen 2 μg/mL, % growth, replicate 1) of 75.06%. This compound had a Tg_72h_%Growth_Rep2 in experiment [3] (T. gondii, parasite screen 2 μg/mL, % growth, replicate 2) of 97.61%.

Consider `O=c1c(-c2ccc(O)cc2)coc2cc(O)cc(O)c12` [Genistein], for which the activity at 2 µg/mL in experiment [1] (3D7, library screen at 2 μg/mL, % growth, replicate 1, read-out: Pf_72h_%Growth_Rep1) came out at 88.5%; in experiment [1] (3D7, library screen at 2 μg/mL, % growth, replicate 2, read-out: Pf_72h_%Growth_Rep2), 42.1%; in experiment [2] (3D7, library screen at 2 μg/mL, % growth, replicate 1, read-out: Pf_120h_%Growth_Rep1), 89.5%; in experiment [2] (3D7, library screen at 2 μg/mL, % growth, replicate 2, read-out: Pf_120h_%Growth_Rep2), 111%. In addition, the figures for the percent parasite growth at 2 µg/mL in experiment [3] (setting [12]) and in experiment [3] (setting [13]) were 80.3% and 72.4%, respectively.

As for `C[C@H]1CCC[C@H](O)CCCCCc2cc(O)cc(O)c2C(=O)O1` [Zearalanol, alpha-], in experiment [1] (setting [8]), the Pf_72h_%Growth_Rep1 was determined as 80.84%. For the same compound, in experiment [1] (setting [9]), the Pf_72h_%Growth_Rep2 was determined as 78.13%. In experiment [2] (setting [8]), this compound showed a Pf_120h_%Growth_Rep1 of 88.76%. The Pf_120h_%Growth_Rep2 in experiment [2] (setting [9]) was found to be 84.84%. In experiment [3] (setting [10]), this compound came in with a Tg_72h_%Growth_Rep1 of 162.37%. Moreover, the Tg_72h_%Growth_Rep2 in experiment [3] (setting [11]) was found to be 92.02%.

Regarding `CC[C@H](C)C(=O)O[C@H]1C[C@H](O)C=C2C=C[C@H](C)[C@H](CC[C@@H](O)C[C@@H](O)CC(=O)O)[C@H]21` [Pravastatin sodium], the activity at 2 µg/mL came out at 83.8% in experiment [1] (3D7, 72 h, P. falciparum, parasite screen 2 μg/mL, % growth, replicate 1, read-out: Pf_72h_%Growth_Rep1); 99.3% in experiment [1] (3D7, 72 h, P. falciparum, parasite screen 2 μg/mL, % growth, replicate 2, read-out: Pf_72h_%Growth_Rep2); 96.8% in experiment [2] (3D7, 120 h, P. falciparum, parasite screen 2 μg/mL, % growth, replicate 1, read-out: Pf_120h_%Growth_Rep1); 111% in experiment [2] (3D7, 120 h, P. falciparum, parasite screen 2 μg/mL, % growth, replicate 2, read-out: Pf_120h_%Growth_Rep2). In addition, the percent parasite growth at 2 µg/mL came out at 92.2% in experiment [3] (setting [16]) and 94.6% in experiment [3] (setting [17]).

For `Cc1cc(O)c2c(c1)C(=O)c1c(c(O)cc(O)c1-c1c(O)cc(O)c3c1C(=O)c1cc(C)cc(O)c1C3=O)C2=O` [Skyrin], the activity at 2 µg/mL in experiment [1] (3D7, P. falciparum, parasite screen 2 μg/mL, % growth, replicate 1, read-out: Pf_72h_%Growth_Rep1) stood at 80.4%; in experiment [1] (3D7, P. falciparum, parasite screen 2 μg/mL, % growth, replicate 2, read-out: Pf_72h_%Growth_Rep2), 120%; in experiment [2] (3D7, P. falciparum, parasite screen 2 μg/mL, % growth, replicate 1, read-out: Pf_120h_%Growth_Rep1), 75.2%; in experiment [2] (3D7, P. falciparum, parasite screen 2 μg/mL, % growth, replicate 2, read-out: Pf_120h_%Growth_Rep2) it was 137%. The percent parasite growth at 2 µg/mL is 114% in experiment [3] (setting [16]) and 84.9% in experiment [3] (setting [17]).

Consider `CC[C@H](C)[C@H]1O[C@]2(C=C[C@@H]1C)C[C@@H]1C[C@@H](C/C=C(\C)[C@@H](O[C@H]3C[C@H](OC)[C@@H](O[C@H]4C[C@H](OC)[C@H](O)[C@H](C)O4)[C@H](C)O3)[C@@H](C)C=C/C=C3\CO[C@@H]4[C@H](O)C(C)C=C(C(=O)O1)[C@]34O)O2` (stereo partly drawn) [Avermectin B1a, delta2-], for which, in experiment [1] (setting [4]), the Pf_72h_%Growth_Rep1 is listed as 4.74%. Moreover, the Pf_72h_%Growth_Rep2 in experiment [1] (setting [5]) was determined as 5.45%. The same compound registered a Pf_120h_%Growth_Rep1 in experiment [2] (setting [4]) of 4.88%. Further, in experiment [2] (setting [5]), the Pf_120h_%Growth_Rep2 is -9.99%. For the same compound, the Tg_72h_%Growth_Rep1 in experiment [3] (setting [4]) was found to be 29.57%. The Tg_72h_%Growth_Rep2 in experiment [3] (setting [5]) is listed as 35.45%.

With `CC[C@H](C)[C@H]1O[C@]2(C=C[C@@H]1C)C[C@@H]1C[C@@H](C/C=C(\C)[C@@H](O[C@H]3C[C@H](OC)[C@@H](O[C@H]4C[C@H](OC)[C@@H](O)[C@H](C)O4)[C@H](C)O3)[C@@H](C)/C=C/C=C3\CO[C@@H]4[C@H](O)C(C)=C[C@H](C(=O)O1)[C@]34O)O2` [Avermectin B1a, epi-], in experiment [1] (setting [4]), the Pf_72h_%Growth_Rep1 amounted to 8.49%. Moreover, in experiment [1] (setting [5]), the Pf_72h_%Growth_Rep2 is recorded as 20.73%. Further, in experiment [2] (setting [4]), the Pf_120h_%Growth_Rep1 is 5.66%. Moreover, the Pf_120h_%Growth_Rep2 in experiment [2] (setting [5]) is given as -2.43%. For the same compound, the Tg_72h_%Growth_Rep1 in experiment [3] (setting [4]) is 34.09%. The Tg_72h_%Growth_Rep2 in experiment [3] (setting [5]) worked out at 40.50%.
